Molecules are shown by their SMILES. Structures can show the parent of a compound that is named as a salt.

This is an account of results in patent publication US7368126B2, “Controlled release depot formulations” (priority 2002, dated 2008).

One data set in a line: Solubility in water. The class given is physicochemical. As to conditions: DI water.
The conditions of data set [1]: cited from earlier work.

Regarding `CCCCN1CCCCC1C(=O)Nc1c(C)cccc1C` (centres unmarked) [Bupivacaine hydrochloride], in the data set “Solubility in water”, the “concentration in deionized water at saturation” value was 40000 µg/mL.
For the compound `CC(=O)OCC(COC(C)=O)OC(C)=O` [triacetin], the “reported solubility in water” value in data set [1] is reported as 7.17 grams in 100 ml of water.
